Reference: ChEMBL document CHEMBL1123013, “Synthesis and neuroleptic activity of 3-(1-substituted-4-piperidinyl)-1,2-benzisoxazoles” (J Med Chem, 1985)

Tests used:
Mus musculus = organism: Mus musculus; experiment: animal or person; conditions: ip
Description: Neuroleptic activity in vivo by ability to antagonise climbing in apomorphine dosed mice after intraperitoneal administration.

Dopamine receptor = experiment: Ability to inhibit the binding of [3H]spiroperidol in rat striatal tissue; ND=assay not performed due to solubility problems.; assay type: tissue-based, Striatum

With `COc1ccc2c(C3CCN(CCCn4c(O)nc5ccccc54)CC3)noc2c1` the ED50 (Mus musculus) was over 10 mg/kg.
Compound `Fc1ccc(C(CCCN2CCC(c3noc4ccccc34)CC2)c2ccc(F)cc2)cc1` has an ED50 (Mus musculus) of 1.6 mg/kg.
`Oc1ccc2onc(C3CCN(CCCC(c4ccc(F)cc4)c4ccc(F)cc4)CC3)c2c1` showed an ED50 (Mus musculus) of over 10 mg/kg.
Compound `COc1cc2onc(C3CCN(CCCn4c(O)nc5ccccc54)CC3)c2cc1OC` has an ED50 (Mus musculus) of over 10 mg/kg.
For `Oc1nc2ccccc2n1CCCN1CCC(c2noc3cc(F)ccc23)CC1`, the ED50 (Mus musculus) was 0.09 mg/kg.
Work on `Fc1ccc(C(CCCN2CCC(c3noc4ccc(F)cc34)CC2)c2ccc(F)cc2)cc1` yielded an ED50 (Mus musculus) of 1.6 mg/kg.
`COc1cc2onc(C3CCN(CCCc4c(C)[nH]c5ccccc45)CC3)c2cc1OC` was tested, and the ED50 (Mus musculus) was over 10 mg/kg.
`Cc1[nH]c2ccccc2c1CCCN1CCC(c2noc3ccc(O)cc23)CC1` gave an ED50 (Mus musculus) of over 10 mg/kg.
For `Oc1nc2ccccc2n1CCCN1CCC(c2noc3cc(Cl)ccc23)CC1`, the ED50 (Mus musculus) was 0.8 mg/kg.
`Cc1[nH]c2ccccc2c1CCCN1CCC(c2noc3cc(Cl)ccc23)CC1` was tested, and the ED50 (Mus musculus) was 4.1 mg/kg.
`Cc1[nH]c2ccccc2c1CCCN1CCC(c2noc3ccccc23)CC1` was tested, and the ED50 (Mus musculus) was 1.1 mg/kg.
For `COc1cc2onc(C3CCN(CCCc4noc5cc(F)ccc45)CC3)c2cc1OC`, the ED50 (Mus musculus) was over 10 mg/kg.
With `Oc1nc2ccccc2n1CCCN1CCC(c2noc3cccc(F)c23)CC1` the ED50 (Mus musculus) was 5.3 mg/kg.
With `Fc1ccc2c(CCCN3CCC(c4noc5ccccc45)CC3)noc2c1` the ED50 (Mus musculus) was 1.4 mg/kg.
With `Cc1[nH]c2ccccc2c1CCCN1CCC(c2noc3ccc(F)cc23)CC1` the ED50 (Mus musculus) was over 10 mg/kg.
In the case of `COc1ccc2onc(C3CCN(CCCc4c(C)[nH]c5ccccc45)CC3)c2c1`, the ED50 (Mus musculus) is reported as over 10 mg/kg.
`Fc1ccc2c(CCCN3CCC(c4noc5cc(F)ccc45)CC3)noc2c1` was tested, and the ED50 (Mus musculus) was 0.08 mg/kg.
For `O=C(c1ccccc1)C1CCNCC1`, the ED50 (Mus musculus) was 1.3 mg/kg.
Compound `Oc1nc2ccccc2n1CCCN1CCC(c2noc3ccc(F)cc23)CC1` has an ED50 (Mus musculus) of over 10 mg/kg.
For `Fc1ccc2c(CCCN3CCC(c4noc5cc(Cl)ccc45)CC3)noc2c1`, the ED50 (Mus musculus) was 2 mg/kg.
`COc1ccc2onc(C3CCN(CCCC(c4ccc(F)cc4)c4ccc(F)cc4)CC3)c2c1` showed an ED50 (Mus musculus) of over 10 mg/kg.
`Oc1nc2ccccc2n1CCCN1CCC(c2noc3ccccc23)CC1` was tested, and the IC50 (Dopamine receptor) was “Insoluble”.
For `COc1ccc2onc(C3CCN(CCCc4noc5cc(F)ccc45)CC3)c2c1`, the ED50 (Mus musculus) was 7.2 mg/kg.
With `COc1cc2onc(C3CCN(CCCC(c4ccc(F)cc4)c4ccc(F)cc4)CC3)c2cc1OC` the ED50 (Mus musculus) was over 10 mg/kg.
